System: Plasmodium falciparum
Assay: GSK_TCMDC: Inhibition of Plasmodium falciparum 3D7 in whole erythrocytes, using parasite LDH activity as an index of growth.
Assay type: functional, organism-based
Conditions: Plasmodium falciparum, 3D7

In order of rising XC50:
1. CC1N=C(N)N=C(N)N1OCc1cccc2ccccc12 (stereo not given)  3.2 nM
2. Cc1ccccc1OCCCON1C(=N)N=C(N)NC1(C)C  3.2 nM
3. Cc1c(Cc2ccccc2Br)cnc2nc(N)nc(N)c12  4.62 nM
4. CCc1cn2c3c(cc(C(=O)N[C@@H](Cc4ccccc4)[C@H](O)CNCC(C)C)cc13)N(C)S(=O)(=O)CC2  37.6 nM
5. CCN1CCN(CCCNc2ccnc3cc(Cl)ccc23)CC1  67 nM
6. CCOC(=O)c1ccc(NC(=O)Nc2cccc(-c3ccc(-c4nc5cc(F)ccc5[nH]4)cc3)c2)cc1  94.5 nM
7. C=CCOC(=O)N1CCC(CNCc2ccc(-c3cccc(-c4nc5cccc(C)c5[nH]4)c3)cc2)C1 (stereo not given)  118 nM
8. CC1(CCCCN2CC=C(c3c[nH]c4ccccc34)CC2)C(=O)Nc2ccccc21 (stereo not given)  138 nM
9. CCN1CCN(CC(O)CNC(=O)Nc2ccc(Cl)cc2)CC1 (stereo not given)  150 nM
10. CCCCNC(=N)Nc1ccc(OCCCOc2ccc(NC(=N)NCCCC)cc2)cc1  164 nM
11. CCCCN(Cc1cc(Cl)c(OC)c(OC)c1)c1ccc(C(O)(C(F)(F)F)C(F)(F)F)cc1  194 nM
12. CNCCNc1nccc(N2CCc3ncnc(Nc4ccc(OCc5cccc(F)c5)c(Cl)c4)c3C2)n1  197 nM
13. O=C1COc2ccccc2N1C/C=C(\CN1CCC(c2ccccc2)CC1)c1cc(Cl)cc(Cl)c1  215 nM
14. O=C(N[C@@H](CC1CCCCC1)C(=O)NCc1cccc2ccccc12)c1ccc(O)c(-c2ccc(Cl)c(Cl)c2)c1  216 nM
15. CCN(CC)/C(=N/C(=N)NCc1ccc(Cl)cc1Cl)NCCCCCCN/C(=N\C(=N)NCc1ccc(Cl)cc1Cl)N(CC)CC  218 nM
16. CCCN1CCN(CCNC(=O)c2cccc(Nc3nccc(Nc4ccc(Oc5ccccc5)cc4)n3)c2)CC1  239 nM
17. CCc1cc2c(O)c([N+](=O)[O-])c(=O)oc2cc1OCCCCCOc1cc2oc(=O)c([N+](=O)[O-])c(O)c2cc1CC  257 nM
18. COc1ccc2c(c1)Nc1ccc(Cl)cc1C2N (stereo not given)  303 nM
19. CN(C)/C(=N/C(=N)NCc1ccc(Cl)c(Cl)c1)NCCCCCCN/C(=N\C(=N)NCc1ccc(Cl)c(Cl)c1)N(C)C  304 nM
20. COc1cc(NCCCNCC2c3ccccc3Oc3ccccc32)nc2ccccc12  331 nM
21. CC(=O)N(Cc1nc(-c2cc(Cl)c(Cl)s2)cs1)c1c(C)cccc1C  333 nM
22. Cc1ccccc1CNc1noc(-c2sccc2Br)n1  380 nM
23. O=c1c2ccccc2nc(/C=C/c2ccc([N+](=O)[O-])cc2)n1-c1ccccn1  382 nM
24. CC(C)OC(=O)c1cccnc1SCC(=O)Nc1ccc(C(F)(F)F)cc1Cl  400 nM
25. Cc1cccc(Cn2nc(-c3ccccc3)c(N3CCCCC3)cc2=O)c1  464 nM
26. CN1CCC(C(=O)Nc2ccc(-c3cccc(-c4nc5cc(C(F)(F)F)ccc5[nH]4)c3)cc2)CC1  577 nM
27. COc1ccc(CCNCCCCCCNCCc2ccc(Cl)c3ccccc23)cc1OC  580 nM
28. CC(C)(C)c1ccc2[nH]c(-c3ccc(/C=C/C(=O)NC4CCN(Cc5ccccc5)CC4)cc3)nc2c1  589 nM
29. Cc1cc(F)ccc1[C@H]1CNCCN1C(=O)N(C)C(C)(C)c1cc(C(F)(F)F)cc(C(F)(F)F)c1  594 nM
30. COc1ccc(-c2cccc(NC(=O)c3cccc(F)c3)c2)cc1CN1CCCN(C)CC1  603 nM
31. Cc1cc(=NN=Cc2ccccn2)c2cc(C(F)(F)F)ccc2[nH]1  621 nM
32. CN(C(=O)c1cc2c(-c3cncnc3)cccc2[nH]1)c1ccccc1  628 nM
33. CC[C@H]1CN2CC[C@H]1C[C@H]2[C@H](O)c1ccnc2ccc(O)cc12  643 nM
34. CCOC(=O)Cc1nc(C(=O)OCC)c(N)[nH]1  647 nM
35. Clc1ccc(OCc2ccccc2)c(-c2nc(-c3nc4ccc(Cl)cc4[nH]3)cs2)c1  670 nM
36. NCc1ccc(-c2cccc(CNC3CCN(Cc4ccccc4)CC3)c2)cc1  672 nM
37. COc1cc2nccc(Nc3ccc(Oc4ccccc4)cc3)c2cc1OC  684 nM
38. COCCNCc1nc(-c2ccc3c(Nc4ccc(F)c(O)c4)ccnc3c2)cs1  695 nM
39. CCOc1cc(C(=O)Nc2ccc3nc(N(CC)CC)cc(C)c3c2)cc(OCC)c1OCC  696 nM
40. Cc1c(-c2ccccc2)ccc2[nH]cc(CC#N)c12  703 nM
41. CCNc1cc(C(=O)N[C@@H](Cc2ccccc2)[C@H](O)CNC(C)(C)Cc2cccc(OC)c2)cc(N2CCCC2=O)c1  707 nM
42. COc1ccccc1N1CCN(CCCCN(C(=O)Nc2cccc(Cl)c2)C(=O)Nc2cccc(Cl)c2)CC1  707 nM
43. COc1cc(NC(=O)N2CCc3ccc(OCCC4CCCN4C)cc32)cc(C(F)(F)F)c1 (stereo not given)  714 nM
44. CS(=O)(=O)Nc1ccc2[nH]cc(C3CCN(CC4CCN(C(=O)/C=C/c5ccc(Cl)c(Cl)c5)CC4)CC3)c2c1  716 nM
45. O=C(NC(NC(=S)Nc1ccc([N+](=O)[O-])cc1)C(Cl)(Cl)Cl)c1cccc(Cl)c1 (stereo not given)  731 nM
46. C[C@H](NC(=O)[C@H](Cc1ccccc1)NC(=O)OC(C)(C)C)C(=O)N[C@@H](CC1CCCCC1)C(O)CN (stereo not given in full)  733 nM
47. COc1ccc(-n2ccnc2SCC(=O)Nc2cc(Cl)ccc2OC)c(OC)c1  734 nM
48. CCN(CC)CCNc1c2ccc(Cl)cc2nc2ccc(OC)nc12  736 nM
49. Cc1cc(Nc2ccc(O)cc2)nc2cccc(O)c12  742 nM
50. O=C(Nc1cc(Cl)cc(Cl)c1)Nc1ccccc1C(=O)NC1CCCCC1  749 nM
51. CCCCCN1CCCCC(NS(=O)(=O)c2ccc(C(=O)Nc3cccc(C(F)(F)F)c3)cc2)C1 (stereo not given)  750 nM
52. COc1ccc2nccc([C@@H](O)CN3CCC(NCc4ccc(OC)c(NC=O)c4)CC3)c2c1  753 nM
53. Cc1ccc(-c2nnc(Nc3ccc(OCC(N)=O)cc3)c3ccccc23)cc1S(=O)(=O)NCC1CCCO1 (stereo not given)  753 nM
54. Nc1ncc(-c2ccc(F)cc2)cc1-c1nc2ccc(Cl)cc2[nH]1  753 nM
55. Cc1nnsc1C(=O)Nc1ccc(-c2cccc(-c3nc4cc(F)ccc4[nH]3)c2)cc1  766 nM
56. COc1nc2c(CCN3CCC(NCc4ccc5c(c4)NC(=O)CO5)CC3)c(Cl)cnc2cc1F  771 nM
57. COC(=O)[C@@H](NC(=O)[C@H](CC(C)C)Nc1ccc(C#N)c2ccccc12)c1ccc(O)cc1  788 nM
58. CC(CCCCOCCc1ccccc1)NCC(O)c1cc(Cl)c(N)c(Cl)c1 (stereo not given)  788 nM
59. CC(C)(CN1CCCC1)CN(Cc1ccc(-c2ccc(C(F)(F)F)cc2)cc1)C(=O)Cn1c(CCc2cccc(F)c2F)nc(=O)c2ccccc21  790 nM
60. Cc1ccc(CNC(=O)[C@H](Cc2ccccc2)Nc2cc(C)nc(NCc3ccccc3C)n2)cc1  803 nM
61. COCCN1CCC(N(CC2(O)CCN(c3ccc(C(F)(F)F)cc3)CC2)C(=O)Cn2c(SCc3cccc(F)c3F)cc(=O)c3ccccc32)CC1  807 nM
62. COc1ccc2ncc(Cl)c(CCN3CC[C@@H](CNCc4cc5c(cn4)OCS5)C3)c2n1  811 nM
63. O=C(NCCCN1CCCC1=O)NCc1ccccc1  816 nM
64. c1ccc(CNCc2cccc(-c3ccc(-c4nc5ccccc5[nH]4)s3)c2)cc1  818 nM
65. CCOc1ccc(C2CCN(CCN3CCC(NC(=O)c4ccc(-c5ccc(C(F)(F)F)cc5)cc4)CC3)CC2)c(OCC2CC2)c1  826 nM
66. OCCN1CCN(c2nc(Nc3cccc(F)c3)c3cnn(-c4ccccc4)c3n2)CC1  828 nM
67. CC(C)[C@H](NC(=O)c1ccc(O)c(-c2cccc(C(F)(F)F)c2)c1)C(=O)NCCN1CCCCC1  836 nM
68. COc1ccc2ccc(F)c(CCN3CCC(NCc4cc5c(cn4)OCCO5)CC3)c2n1  840 nM
69. COc1cc(NC(=O)/C=C/c2ccc(-c3ccccc3)cc2)ccc1OCCN(C(C)C)C(C)C  843 nM
70. Cc1cnc(-c2ccc(NC(=O)N3CCc4cc5nccc(N6CCN7CCC[C@H]7C6)c5cc43)c3ccccc23)o1  858 nM
71. COc1cc(NC(=O)c2c(-c3c(F)cccc3Cl)noc2C)c(OC)cc1Cl  861 nM
72. COc1cc2c(cc1C(F)(F)F)N(C(=O)Nc1cc(Br)cc(-c3cccnc3)c1)CC2  864 nM
73. CCNC(=O)c1cc(S(=O)(=O)N2CCN(c3ccccn3)CC2)cs1  866 nM
74. O=C(/C=C/C=C/c1ccccc1)NC1CCC(CN2CCC(c3c[nH]c4ccccc34)CC2)CC1 (stereo not given)  868 nM
75. CC(C)CNCc1ccc(-c2cccc(CN(CCCN3CCN(C)CC3)C(=O)/C=C/c3ccccc3)c2)cc1  872 nM
76. COc1ccc2nccc([C@H](O)CN3CCC(NCc4ccc5c(c4C)OCCO5)CC3)c2n1  886 nM
77. COc1cc(CNCCCNc2nc(=O)c3sccc3[nH]2)c2[nH]cc(Cl)c2c1  888 nM
78. CCOc1ccc(C(C)NC(=O)Nc2ccccc2)cc1OCC (stereo not given)  901 nM
79. CC(C)CCNC(=O)C1Cc2c([nH]c3cc(Br)ccc23)C2(CCN(CCc3ccccc3)CC2)N1 (stereo not given)  910 nM
80. COc1ccc(Cc2cnc(N)nc2N)cc1OCCCOc1ccccc1  911 nM
81. COc1ccc2nccc([C@@H](O)CN3CCC(NCc4ccc5cccc(O)c5n4)CC3)c2n1  912 nM
82. CC(C)C[C@H](NC(=O)c1cc2ccccc2s1)C(=O)N[C@H]1CCN(Cc2ccc(I)c(OC3CCN(C)C3)c2)C1 (stereo not given in full)  920 nM
83. CCCC(=O)Nc1ccc(OCCCN(Cc2ccccc2C(F)(F)F)c2ccc(C#N)c(C(F)(F)F)c2)cc1  926 nM
84. CN1CCC(N(Cc2ccc(-c3ccc(C(F)(F)F)cc3)cc2)C(=O)Cn2cc(Cc3cnn(C)c3)c(=O)nc2SCc2cccc(F)c2F)CC1  933 nM
85. CC1CN(c2cnn(Cc3ccc(NC(=O)Nc4cccc(C(F)(F)F)c4)cc3)c(=O)c2Cl)CC(C)N1 (stereo not given)  940 nM
86. Cc1cc(N2CCCN(CC3CCCCC3)CC2)nc(Nc2ccc(Br)cc2)n1  943 nM
87. Cc1cnc(NCCc2ccc(F)cc2)nc1NCCC(=O)Nc1ccccc1  946 nM
88. O=C1COC2(CN1C1CCN(Cc3ccc(O)c(Cl)c3)C1)c1ccccc1-c1ccccc12 (stereo not given)  960 nM
89. Cc1ccc(CNC(=O)[C@H](Cc2ccccc2)Nc2cc(C)nc(NCCc3ccc(F)cc3)n2)cc1  980 nM
90. Cc1noc(-c2ccc(N3CCC(C(=O)N4CCN(C(C)C)CC4)CC3)cc2)n1  1070 nM
91. CCOc1ccccc1CNc1nccc(NCc2ccc(Cl)cc2Cl)n1  1100 nM
92. CC(C)CCN1CCC(Oc2ccc(NC(=O)c3cccs3)cc2Cl)C1 (stereo not given)  1100 nM
93. COc1ccc2ncc(F)c(CCN3CC[C@@H](CNCc4cc5c(cn4)OCS5)C3)c2n1  1160 nM
94. O=C(Nc1ccsc1C(=O)NC1CCCCC1)c1ccc(F)cc1  1210 nM
95. CCCC(C)NC(=O)[C@H](Cc1ccccc1)NC(=O)c1ccc(O)c(-c2ccc(OC)cc2)c1 (stereo not given in full)  1240 nM
